# Where “and” joins values, the source holds several entries; their conditions need not be identical. Identical values can stand only once.
# Target: SARS-CoV-2 Main Protease (SARS-CoV-2) (UniProt P0DTD1)
row,SMILES,IC50
1,COc1ccc(-c2ccsc2S(=O)(=O)N2CCN(C(=O)CCl)CC2)cc1,1.05 µM
2,O=C(NCCc1cccc(F)c1)C(c1cccnc1)N(Cc1cc(C(F)(F)F)cs1)C(=O)c1ccco1 (stereo not drawn),> 99.5 µM
3,CN(Cc1nc2ccccc2s1)C(=O)c1ccc2c(c1)nnn2C,> 99.5 µM
4,COC(=O)c1c(C)nn(C(=O)c2cccs2)c1-c1snnc1C,5.72 µM
5,NS(=O)(=O)C1Cc2ccccc2N(CCNS(=O)(=O)c2ccccc2)C1 (stereo not drawn),> 99.5 µM
6,CC(C)(C)c1ccc(N(C(=O)c2cocn2)C(C(=O)NCc2ccncc2)c2cccnc2)cc1 (stereo not drawn),> 99.5 µM
7,O=C(Cc1cccc(Cl)c1)Nc1nnn[nH]1,45.3 µM
8,CCCOc1ccc(Nc2cc(Cl)cc(CC(=O)Nc3cncc4ccccc34)c2)cc1,2.92 µM
9,CC(C)(C)c1ccc(N(C(=O)c2nc3cnccc3s2)C(C(=O)NCCc2cccc(F)c2)c2cccnc2)cc1 (stereo not drawn),> 99.5 µM
10,CC(C)(C)Oc1ccncc1NC(=O)Cc1cccc(Cl)c1,22.9 µM
11,O=CN1CCC(OC(=O)c2c[nH]nc2-c2ccc(Cl)cc2)CC1,> 99.5 µM
12,CC(C)(C)c1cc(N(C(=O)c2cocn2)C(C(=O)NCCc2cccc(F)c2)c2cccnc2)no1 (stereo not drawn),51.2 µM
13,CC(C)C[C@@H](NC(=O)[C@@H](Cc1ccccc1)NC(=O)[C@H](N)Cc1ccccc1)C(=O)N[C@H](CCCCN)C(=O)N1CCC(N)(C(=O)O)CC1 (stereo in doubt),> 99 µM
14,Cn1c(=O)[nH]c2cncc(NC(=O)C3CCOc4ccc(Cl)cc43)c21 (stereo not drawn),20.7 µM
15,O=C(Nc1cncc2cc(CN3CC4(CNC4)C3)ccc12)C1CCOc2ccc(Cl)cc21 (stereo not drawn),1.44 µM
16,C[C@H]1C[C@@H](C(=O)Nc2cncc3ccccc23)c2cc(Cl)ccc2O1 (stereo in doubt),20.1 µM
17,CN1CCCN(c2ccc(N(C(=O)c3cocn3)C(C(=O)NCCc3cccc(F)c3)c3cccnc3)cc2)C1=O (stereo not drawn),61 µM
18,CN1C(=O)CCc2cc(N(C(=O)c3cocn3)C(C(=O)NCCc3cccc(F)c3)c3cccnc3)ccc21 (stereo not drawn),63.5 µM
19,COC1CN(S(=O)(=O)N2Cc3ccc(Cl)cc3C3(CCN(c4cncc5ccccc45)C3=O)C2)C1 (stereo not drawn),0.224 µM
20,CNC(=O)CN1C[C@H](C(=O)Nc2cncc3cccc(Cl)c23)c2cc(Cl)ccc2C1=O (stereo in doubt),0.0964 µM
21,CSc1ccc(CN(C(=O)c2ccco2)C(C(=O)NCCc2cccc(F)c2)c2cccnc2)cc1C#N (stereo not drawn),54.9 µM
22,CN(c1cc(Cl)cc(CC(=O)Nc2cncc3ccccc23)c1)C1CCN(C(=O)OC(C)(C)C)CC1,2.5 µM
23,CN(C)c1ccc(N(Cc2ccccc2)C(=O)Cn2nnc3ccccc32)cc1,5.05 µM
24,Cc1ccncc1NC(=O)Cc1cc(Cl)cc(NS(N)(=O)=O)c1,11.3 µM

row,SMILES,IC50
1,O=C(Cc1cccc(Cl)c1)NC1=NC(=O)c2ccccc21,> 99.5 µM
2,O=C(Cc1cc(Cl)cc(N2CCN(c3cccc([N+](=O)[O-])c3)CC2)c1)Nc1cncc2ccccc12,2.87 µM
3,COc1ccccc1OCC(C)NC(=O)c1cc(=O)[nH]c2cc(F)ccc12 (stereo not drawn),40.5 µM and 26.9 µM
4,Cn1c(NC(=O)c2cccnc2-n2cccn2)nc2cc(F)ccc21,> 99.5 µM
5,Cc1cc(C(=O)N2Cc3ccc(Cl)cc3C3(CCN(c4cncc5ccccc45)C3=O)C2)n(C)n1 (stereo not drawn),0.464 µM
6,CN(c1ccc2c(NC(=O)Cc3cccc(Cl)c3)cncc2c1)S(C)(=O)=O,2.7 µM
7,O=C(Nc1cncc2ccccc12)C1(CNc2c[nH]c(=O)[nH]c2=O)CCOc2cc(Cl)ccc21 (stereo not drawn),5.36 µM
8,C=CC(=O)NCc1ccc(C(=O)NCc2cc(C)cc3c(C)c(C)[nH]c23)cc1,> 99.5 µM
9,CCS(=O)(=O)N1Cc2ccc(Cl)cc2C(C(=O)Nc2cncc3ccccc23)C1 (stereo not drawn),0.242 µM
10,Cc1cc(N2CCC(C)N(Cc3ccccc3)CC2)n2ncnc2n1 (stereo not drawn),> 99.5 µM
11,CN1CCN(c2ncc(C(C(=O)NCCc3cccc(F)c3)N(C(=O)c3cocn3)c3ccc(C(C)(C)C)cc3)cn2)CC1 (stereo not drawn),> 99.5 µM
12,O=C(Cc1cc(Cl)cc(Nc2cc(C(F)(F)F)ccc2Cl)c1)Nc1cncc2ccccc12,1.61 µM
13,O=C(Cc1cc(Cl)cc(Nc2ccc(Oc3ccc(Cl)cc3)cc2)c1)Nc1cncc2ccccc12,2.44 µM
14,COC(=O)CCSc1cc(Cl)ccc1N(C(=O)c1ccco1)C(C(=O)NCCc1cccc(F)c1)c1cccnc1 (stereo not drawn),16.6 µM
15,C=CC(=O)N1CCN(S(=O)(=O)c2cccc(F)c2)CC1,> 99.5 µM
16,Cc1c(C(=O)CCl)c2ccccn2c1C(=O)c1ccc(F)cc1,0.719 µM
17,O=C(Cc1cc(Cl)cc(NCCc2ccc(C(F)(F)F)cc2)c1)Nc1cncc2ccccc12,5.57 µM
18,CN(Cc1cccc2ccccc12)c1cc(Cl)cc(CC(=O)Nc2cncc3ccccc23)c1,8.79 µM
19,CC(C)(C)c1ccc(N(C(=O)c2cocn2)C(C(=O)NC2CC(F)(F)C2)c2cccnc2)cc1 (stereo not drawn),2.35 µM
20,O=C(CC1(C(=O)Nc2cncc3ccccc23)CCOc2ccc(Cl)cc21)N1CCN(C2CCOC2)CC1 (stereo not drawn),6.68 µM
21,COc1ccccc1N1CCN(c2cc(Cl)cc(CC(=O)Nc3cncc4ccccc34)c2)CC1,2.98 µM
22,CS(=O)(=O)c1ccc2c(NC(=O)C3CCS(=O)(=O)c4ccc(Cl)cc43)cncc2c1 (stereo not drawn),0.744 µM
23,Cn1nnnc1C1=CCN(C(=O)CC2(C(=O)Nc3cncc4ccccc34)CCOc3ccc(Cl)cc32)CC1 (stereo not drawn),9.18 µM
24,O=C(Cc1cc(Cl)cc(Nc2cc(C(F)(F)F)ccc2N2CCCC2)c1)Nc1cncc2ccccc12,3.51 µM
